Data published in ChEMBL document CHEMBL1955715 (Bioorg Med Chem Lett, 2012).
The source made the active and inactive calls. The rule behind the calls is not given here.

Columns and labels:
[1] = tested on: Rattus norvegicus; experiment: Wake promoting activity in EEG/EMG Sprague-Dawley rat model assessed as total time awake at 100 mg/kg, ip measured up to 3 hrs (reference value: 65 +/- 9 mins); settings: route intraperitoneal
[2] = Solubility of the compound in water at pH 7.4; type: physicochemical
[3] = Metabolic stability in human liver S9 fraction assessed as compound remaining after 2 hrs; type: ADME, subcellular; settings: read-out: Stability
[4] = target: T1, Sodium-dependent dopamine transporter (Rattus norvegicus, UniProt P23977); experiment: Inhibition of rat DAT
[5] = target: T1, Sodium-dependent dopamine transporter; experiment: Inhibition of rat DAT-mediated dopamine reuptake
[6] = target: Transporter (Rattus norvegicus, UniProt Q63380); experiment: Inhibition of rat NET-mediated norepinephrine reuptake
[7] = target: Sodium-dependent serotonin transporter (Rattus norvegicus, UniProt P31652); experiment: Inhibition of rat SERT-mediated serotonin reuptake
[8] = target: CYP3A4 (Homo sapiens, UniProt P08684); experiment: Inhibition of CYP3A4 at 10 uM; type: ADME
[9] = target: CYP2D6 (Homo sapiens, UniProt P10635); experiment: Inhibition of CYP2D6 at 10 uM; type: ADME
[10] = target: Cytochrome P450 2C19 (Homo sapiens, UniProt P33261); experiment: Inhibition of CYP2C19; type: ADME
[11] = tested on: Salmonella typhimurium; experiment: Mutagenic activity in Salmonella Typhimurium by Mini-Ames test; type: toxicity, organism-based; settings: salmonella enterica subsp. enterica serovar typhimurium
[12] = target: Voltage-gated inwardly rectifying potassium channel KCNH2 (Homo sapiens, UniProt Q12809); experiment: Inhibition of human ERG at 10 uM
[13] = tested on: Rattus norvegicus; experiment: Wake promoting activity in po dosed EEG/EMG Sprague-Dawley rat model assessed as slow wave sleep and rapid eye movement sleep; type: functional, organism-based
[14] = tested on: Plasma; experiment: Plasma concentration in human; type: ADME, cell-free

Chain of CYP2D6 (P10635 whole entry): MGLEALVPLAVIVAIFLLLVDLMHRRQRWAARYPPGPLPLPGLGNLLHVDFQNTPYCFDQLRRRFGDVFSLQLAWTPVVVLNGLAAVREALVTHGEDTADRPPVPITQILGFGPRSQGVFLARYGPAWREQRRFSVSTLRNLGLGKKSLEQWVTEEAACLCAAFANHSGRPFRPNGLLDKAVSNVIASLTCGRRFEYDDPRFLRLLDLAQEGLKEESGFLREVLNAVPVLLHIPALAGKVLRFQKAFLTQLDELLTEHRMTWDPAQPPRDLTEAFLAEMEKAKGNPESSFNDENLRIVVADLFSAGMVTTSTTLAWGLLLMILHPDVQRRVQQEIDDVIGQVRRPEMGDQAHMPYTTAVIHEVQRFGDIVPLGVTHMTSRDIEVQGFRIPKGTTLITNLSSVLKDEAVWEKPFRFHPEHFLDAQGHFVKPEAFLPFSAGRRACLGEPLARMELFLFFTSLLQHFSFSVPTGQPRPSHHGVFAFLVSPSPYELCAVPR
Chain of CYP3A4 (P08684 whole entry): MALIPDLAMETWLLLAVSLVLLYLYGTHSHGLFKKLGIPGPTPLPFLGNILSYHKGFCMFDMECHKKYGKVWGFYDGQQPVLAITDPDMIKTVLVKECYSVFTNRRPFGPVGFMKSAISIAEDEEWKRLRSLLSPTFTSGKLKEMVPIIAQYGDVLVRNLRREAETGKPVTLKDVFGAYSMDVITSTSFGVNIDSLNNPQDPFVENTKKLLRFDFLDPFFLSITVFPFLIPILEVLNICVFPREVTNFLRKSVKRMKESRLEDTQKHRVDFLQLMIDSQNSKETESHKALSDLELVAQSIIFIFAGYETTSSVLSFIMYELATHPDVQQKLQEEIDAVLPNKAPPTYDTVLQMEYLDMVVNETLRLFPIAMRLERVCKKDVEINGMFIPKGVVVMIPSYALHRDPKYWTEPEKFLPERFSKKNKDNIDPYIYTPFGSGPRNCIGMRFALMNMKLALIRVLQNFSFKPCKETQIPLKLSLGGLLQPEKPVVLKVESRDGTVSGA
T1 sequence (P23977 whole entry): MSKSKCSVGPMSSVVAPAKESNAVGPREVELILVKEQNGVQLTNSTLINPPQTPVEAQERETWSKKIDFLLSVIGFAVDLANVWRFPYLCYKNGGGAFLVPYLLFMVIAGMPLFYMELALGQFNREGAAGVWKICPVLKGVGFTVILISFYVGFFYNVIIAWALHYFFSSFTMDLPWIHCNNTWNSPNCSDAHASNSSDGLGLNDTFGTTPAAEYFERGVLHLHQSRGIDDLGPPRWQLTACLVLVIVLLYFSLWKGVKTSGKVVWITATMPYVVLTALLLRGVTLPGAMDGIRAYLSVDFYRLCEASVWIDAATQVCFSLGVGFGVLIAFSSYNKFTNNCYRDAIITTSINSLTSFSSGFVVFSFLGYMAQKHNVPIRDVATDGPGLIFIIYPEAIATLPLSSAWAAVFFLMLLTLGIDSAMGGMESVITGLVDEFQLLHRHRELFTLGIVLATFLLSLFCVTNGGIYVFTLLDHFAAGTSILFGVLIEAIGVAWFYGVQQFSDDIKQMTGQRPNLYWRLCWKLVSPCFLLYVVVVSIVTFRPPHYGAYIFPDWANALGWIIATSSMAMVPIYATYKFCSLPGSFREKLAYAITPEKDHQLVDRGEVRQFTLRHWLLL
Chain of Cytochrome P450 2C19 (P33261 whole entry): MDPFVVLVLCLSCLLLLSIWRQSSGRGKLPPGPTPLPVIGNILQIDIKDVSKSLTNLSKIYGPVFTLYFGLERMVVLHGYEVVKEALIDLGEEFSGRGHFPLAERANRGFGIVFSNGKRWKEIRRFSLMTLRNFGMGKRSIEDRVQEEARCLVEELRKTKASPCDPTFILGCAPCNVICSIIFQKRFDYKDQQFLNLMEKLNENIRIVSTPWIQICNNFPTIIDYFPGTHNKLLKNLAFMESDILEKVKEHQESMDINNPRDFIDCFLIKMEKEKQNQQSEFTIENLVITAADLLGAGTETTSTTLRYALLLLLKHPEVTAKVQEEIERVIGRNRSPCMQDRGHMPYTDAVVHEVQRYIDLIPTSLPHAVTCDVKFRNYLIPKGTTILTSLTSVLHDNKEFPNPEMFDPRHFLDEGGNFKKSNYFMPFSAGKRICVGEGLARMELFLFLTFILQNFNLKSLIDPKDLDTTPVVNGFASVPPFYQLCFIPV
Chain of Sodium-dependent serotonin transporter (P31652 whole entry): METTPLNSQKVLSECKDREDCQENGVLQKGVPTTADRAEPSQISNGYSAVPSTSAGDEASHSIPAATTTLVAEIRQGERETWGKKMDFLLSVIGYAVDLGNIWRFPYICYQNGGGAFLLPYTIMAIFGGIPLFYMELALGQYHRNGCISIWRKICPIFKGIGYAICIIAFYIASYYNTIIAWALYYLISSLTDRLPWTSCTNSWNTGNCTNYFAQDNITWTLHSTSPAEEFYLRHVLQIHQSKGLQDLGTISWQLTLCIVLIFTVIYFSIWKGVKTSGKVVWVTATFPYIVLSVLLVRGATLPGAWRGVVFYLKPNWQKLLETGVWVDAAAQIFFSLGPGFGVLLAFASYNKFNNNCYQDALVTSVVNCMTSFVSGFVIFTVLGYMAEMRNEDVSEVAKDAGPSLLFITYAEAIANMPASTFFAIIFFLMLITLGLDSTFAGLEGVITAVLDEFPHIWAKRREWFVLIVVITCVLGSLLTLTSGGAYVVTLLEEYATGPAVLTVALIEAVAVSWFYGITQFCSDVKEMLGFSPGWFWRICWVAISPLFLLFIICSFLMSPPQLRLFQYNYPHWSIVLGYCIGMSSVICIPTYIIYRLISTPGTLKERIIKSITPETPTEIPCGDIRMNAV
Chain of Transporter (Q63380 whole entry): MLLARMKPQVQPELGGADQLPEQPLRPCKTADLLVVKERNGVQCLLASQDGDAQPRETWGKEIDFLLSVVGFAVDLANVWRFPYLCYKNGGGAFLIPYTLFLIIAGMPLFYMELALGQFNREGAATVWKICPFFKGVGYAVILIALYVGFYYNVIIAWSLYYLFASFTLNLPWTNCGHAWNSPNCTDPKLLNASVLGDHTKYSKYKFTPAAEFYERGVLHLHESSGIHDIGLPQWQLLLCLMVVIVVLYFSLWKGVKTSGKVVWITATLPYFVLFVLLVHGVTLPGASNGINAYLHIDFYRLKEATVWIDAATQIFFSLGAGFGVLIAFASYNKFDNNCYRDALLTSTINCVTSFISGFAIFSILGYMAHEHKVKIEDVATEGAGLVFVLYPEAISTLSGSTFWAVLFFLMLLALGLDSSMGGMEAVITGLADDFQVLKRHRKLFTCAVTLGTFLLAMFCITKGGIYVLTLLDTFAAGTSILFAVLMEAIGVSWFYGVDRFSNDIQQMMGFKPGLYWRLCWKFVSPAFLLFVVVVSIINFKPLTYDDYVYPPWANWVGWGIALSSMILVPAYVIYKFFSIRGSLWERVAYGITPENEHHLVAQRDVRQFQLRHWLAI
Chain of Voltage-gated inwardly rectifying potassium channel KCNH2 (Q12809 whole entry): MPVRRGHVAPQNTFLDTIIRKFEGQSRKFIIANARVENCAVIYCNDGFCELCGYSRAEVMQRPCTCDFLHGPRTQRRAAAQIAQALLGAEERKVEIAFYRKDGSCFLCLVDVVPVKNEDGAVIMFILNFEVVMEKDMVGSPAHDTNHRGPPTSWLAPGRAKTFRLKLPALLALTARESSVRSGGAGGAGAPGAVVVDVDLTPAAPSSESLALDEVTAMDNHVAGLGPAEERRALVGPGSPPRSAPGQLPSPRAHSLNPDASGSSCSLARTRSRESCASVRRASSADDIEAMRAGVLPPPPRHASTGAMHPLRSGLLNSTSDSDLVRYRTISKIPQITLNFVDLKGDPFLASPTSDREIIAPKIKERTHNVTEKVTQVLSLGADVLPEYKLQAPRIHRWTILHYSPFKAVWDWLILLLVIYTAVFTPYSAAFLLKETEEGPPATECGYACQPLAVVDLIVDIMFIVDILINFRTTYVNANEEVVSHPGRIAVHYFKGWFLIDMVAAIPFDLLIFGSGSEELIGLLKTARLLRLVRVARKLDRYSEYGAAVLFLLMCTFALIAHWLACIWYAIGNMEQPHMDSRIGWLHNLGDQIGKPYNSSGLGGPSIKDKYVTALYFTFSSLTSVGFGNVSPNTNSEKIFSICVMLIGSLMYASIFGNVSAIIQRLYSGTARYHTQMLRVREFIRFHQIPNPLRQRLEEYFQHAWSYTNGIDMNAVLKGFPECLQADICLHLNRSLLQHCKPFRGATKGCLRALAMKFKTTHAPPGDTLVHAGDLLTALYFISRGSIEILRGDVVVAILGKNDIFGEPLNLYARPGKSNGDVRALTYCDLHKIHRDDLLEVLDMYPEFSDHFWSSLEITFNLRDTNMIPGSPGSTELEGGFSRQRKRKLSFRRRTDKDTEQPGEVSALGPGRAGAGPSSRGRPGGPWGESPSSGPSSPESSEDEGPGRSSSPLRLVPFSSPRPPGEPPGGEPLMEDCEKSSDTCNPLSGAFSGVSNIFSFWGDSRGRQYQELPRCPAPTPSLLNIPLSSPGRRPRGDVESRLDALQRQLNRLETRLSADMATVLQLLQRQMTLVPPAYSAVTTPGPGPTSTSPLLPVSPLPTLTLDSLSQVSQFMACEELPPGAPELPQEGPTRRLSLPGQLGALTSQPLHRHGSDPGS

Question: Which Time [1] does the source give for `NC(=O)C[S+]([O-])Cc1ccccc1-c1ccccc1` (stereo not drawn) here?
Answer: The Time was 119 min.

Question: Which Time [1] does the source give for `NC(=O)C[S+]([O-])Cc1ccccc1-c1ccccc1F` (stereo not drawn) here?
Answer: The Time was 64 min.

Question: Which Time [1] does the source give for `COc1ccccc1-c1ccccc1C[S+]([O-])CC(N)=O` (stereo not drawn) here?
Answer: Its Time is 86 min.

Question: For `NC(=O)C[S+]([O-])Cc1ccccc1-c1ccccc1Cl` (stereo not drawn), which Time [1] is on record?
Answer: The Time was 49 min.

Question: Which Time [1] does the source give for `N#Cc1cccc(-c2ccccc2C[S+]([O-])CC(N)=O)c1` (stereo not drawn) here?
Answer: Its Time is 99 min.

Question: With `NC(=O)C[S+]([O-])Cc1ccccc1-c1cccc(C(N)=O)c1` (stereo not drawn) as the compound, how does the Time [1] read?
Answer: The Time was 62 min.

Question: With `NC(=O)C[S+]([O-])Cc1ccccc1-c1cccc(Cl)c1` (stereo not drawn) as the compound, how does the Time [1] read?
Answer: The Time was 106 min.

Question: Which Time [1] does the source give for `NC(=O)C[S+]([O-])Cc1ccccc1-c1ccc(F)cc1` (stereo not drawn) here?
Answer: Its Time is 147 min.

Question: For `NC(=O)C[S+]([O-])Cc1ccccc1-c1ccc(Br)cc1` (stereo not drawn), which Time [1] is on record?
Answer: The Time was 174 min.

Question: Which Time [1] does the source give for `Cc1ccc(-c2ccccc2C[S+]([O-])CC(N)=O)cc1` (stereo not drawn) here?
Answer: The Time was 146 min.

Question: With `NC(=O)C[S+]([O-])Cc1ccccc1-c1ccc(OC(F)(F)F)cc1` (stereo not drawn) as the compound, how does the Time [1] read?
Answer: Its Time is 108 min.

Question: With `CC(=O)c1ccc(-c2ccccc2C[S+]([O-])CC(N)=O)cc1` (stereo not drawn) as the compound, how does the Time [1] read?
Answer: Its Time is 77 min.

Question: Which Time [1] does the source give for `N#Cc1ccc(-c2ccccc2C[S+]([O-])CC(N)=O)cc1` (stereo not drawn) here?
Answer: Its Time is 65 min.

Question: Which Time [1] does the source give for `Cc1ccccc1-c1cccc(C[S+]([O-])CC(N)=O)c1` (stereo not drawn) here?
Answer: Its Time is 117 min.

Question: With `NC(=O)C[S+]([O-])Cc1cccc(-c2ccc(Cl)cc2)c1` (stereo not drawn) as the compound, how does the Time [1] read?
Answer: The Time was 96 min.

Question: For `NC(=O)C[S+]([O-])Cc1ccc(-c2ccccc2)cc1` (stereo not drawn), which Time [1] is on record?
Answer: Its Time is 100 min.

Question: With `NC(=O)C[S+]([O-])Cc1ccc(-c2ccc(Cl)cc2)cc1` (stereo not drawn) as the compound, how does the Time [1] read?
Answer: Its Time is 92 min.

Question: For `NC(=O)C[S+]([O-])Cc1ccccc1-c1ccc(Cl)cc1` (racemic), which solubility [2] is on record?
Answer: Its solubility is greater than 100 µg/mL.

Question: What about the remaining at 2 h [3] of the same compound?
Answer: Its remaining at 2 h is 94%.

Question: And the IC50 [4]?
Answer: Its IC50 is 0.6 µM.

Question: What about the IC50 [5] of the same compound?
Answer: The IC50 was 0.83 µM.

Question: What about the IC50 [6] of the same compound?
Answer: The IC50 was 10 µM.

Question: And the IC50 [7]?
Answer: Its IC50 is greater than 300 µM.

Question: And the inhibition at 10 µM [8]?
Answer: The inhibition at 10 µM was less than 10%.

Question: And the inhibition at 10 µM [9]?
Answer: The inhibition at 10 µM was less than 10%.

Question: What about the IC50 [10] of the same compound?
Answer: The IC50 was 19 µM.

Question: What about the Activity [11] of the same compound?
Answer: The Activity was “Non-toxic”.

Question: And the “inhibition (INH)” value [12]?
Answer: The value was “Not Active”.

Question: What about the Activity [13] of the same compound?
Answer: The Activity was “Active”.

Question: What about the Time [1] of the same compound?
Answer: Its Time is 176 min.

Question: For `NC(=O)C[S+]([O-])C(c1ccccc1)c1ccccc1` (stereo not drawn) [MODAFINIL], which concentration [14] is on record?
Answer: Its concentration is greater than 30 µM.

Question: What about the solubility [2] of the same compound?
Answer: Its solubility is greater than 100 µg/mL.

Question: And the remaining at 2 h [3]?
Answer: The remaining at 2 h was 77%.

Question: And the inhibition at 10 µM [8]?
Answer: The inhibition at 10 µM was less than 10%.

Question: And the inhibition at 10 µM [9]?
Answer: The inhibition at 10 µM was less than 10%.

Question: What about the IC50 [10] of the same compound?
Answer: Its IC50 is 11 µM.

Question: What about the Activity [11] of the same compound?
Answer: Its Activity is “Non-toxic”.

Question: What about the Time [1] of the same compound?
Answer: The Time was 117 min.
